Experimental data as given in US12496304B2, “Selective glucocorticoid receptor modifiers for treating impaired skin wound healing” (AKRIBES BIOMEDICAL GMBH, priority 2019, dated 2025).
Like-named read-outs stand apart in the source and are kept apart here.

Assays:
Collagen 1a = assay: mRNA expression in fibroblast cultures (qRT-PCR): collagen 1; format: cell-based, human; conditions: WE-1, graded concentrations, 72-hour incubation (FIG. 6A)
Description: Cells were seeded into 24-well plates and incubated with compounds in the presence or absence of wound exudates for 72 hours. Total RNA was isolated using the RNeasy Mini Kit (QIAGEN #74106) according to the manufacturer's protocol. RNA integrity and concentration for each sample was confirmed and measured with the Qubit fluorometer. Each RNA sample was then diluted to 2 ng/μl in nuclease-free doubly distilled water.
20 ng of total RNA were reverse-transcribed into cDNA and immediately subjected to PCR amplification using the SuperScript Ill Platinum One-Step Quantitative RT-PCR System with ROX (Invitrogen #11745). qRT-PCR amplifications were performed in 20 μl reactions containing 9 μl 2× Reaction Mix with ROX, 0.4 μl SuperScript III RT/Platinum Taq Mix and 1 μl primer (final: 900 nM, Taqman Gene Expression Assay, Applied Biosystems)
The program included 30 minutes of reverse transcription at 48° C., an initial denaturation for 5 minutes at 95° C. followed by 40 cycles of denaturation at 95° C. for 15 seconds and annealing at 60° C. for 60 seconds. Reactions were set up in 96-well format PCR plates (Peqlab #732-2879) and carried out in a Mx3005P Real-Time PCR Detection System (Stratagene).
TaqMan Gene Expression Assays (Applied Biosystems) were used, which include preoptimized probe and primer sets specific for the genes being validated. The sequences and ID numbers are listed below:
The house keeping gene elongation factor 1a (EF1a) was used as a reference gene. Normalized expression was calculated using the comparative Ct (or ΔCt) method, and fold changes were derived from the 2-ΔΔCt values for each gene. Graphs were prepared using relative Ct values that were calculated by subtracting the EF1a Ct values from the corresponding Ct values for the gene being measured.

IL-8 = assay: Primary human monocyte cytokine secretion assay (spontaneous IL-8); format: cell-based; conditions: 16 hours (FIG. 16B)
Description: Primary human monocytes were prepared from peripheral blood mononuclear cells (PBMC). PBMC were isolated from buffy coats obtained from the Red Cross, Vienna, using LymphoPrep (Technoclone). 30 ml of buffy concentrate was diluted 1:2 with PBS, gently underlayered with 15 ml Lymphoprep in a 50 ml Falcon tube and centrifuged for 25 minutes at 1800 rpm at 21° C. The interphase was carefully transferred to a new Falcon tube and filled up to 50 ml with ice cold PBS. After another centrifugation step (10 minutes, 1200 rpm, 4° C.), the cell pellet was washed 3 times with PBS, resuspended in RPMI medium containing 20% FCS and 10% DMSO and frozen in liquid nitrogen. Monocytes were generated from frozen aliquots using positive selection with the CD14 Beads-Kit (Miltenyi) on an autoMACS-Sorter (Miltenyi) according to the manufacturer's instructions.
Cells were seeded at 8×10^5/ml in 50 μl/well of a 384-well plate and combined cells with graded concentrations of test compounds. After 16 hours, the supernatants were transferred to fresh plates and frozen at −20° C. for IL-8 analysis, using a commercial ELISA kit.

glucocorticoid receptor [1] = target: T1, glucocorticoid receptor (Homo sapiens, UniProt P04150); conditions: read-out: EC50, potency for glucocorticoid receptor activation; cited from earlier work
T1 sequence (P04150 1-777): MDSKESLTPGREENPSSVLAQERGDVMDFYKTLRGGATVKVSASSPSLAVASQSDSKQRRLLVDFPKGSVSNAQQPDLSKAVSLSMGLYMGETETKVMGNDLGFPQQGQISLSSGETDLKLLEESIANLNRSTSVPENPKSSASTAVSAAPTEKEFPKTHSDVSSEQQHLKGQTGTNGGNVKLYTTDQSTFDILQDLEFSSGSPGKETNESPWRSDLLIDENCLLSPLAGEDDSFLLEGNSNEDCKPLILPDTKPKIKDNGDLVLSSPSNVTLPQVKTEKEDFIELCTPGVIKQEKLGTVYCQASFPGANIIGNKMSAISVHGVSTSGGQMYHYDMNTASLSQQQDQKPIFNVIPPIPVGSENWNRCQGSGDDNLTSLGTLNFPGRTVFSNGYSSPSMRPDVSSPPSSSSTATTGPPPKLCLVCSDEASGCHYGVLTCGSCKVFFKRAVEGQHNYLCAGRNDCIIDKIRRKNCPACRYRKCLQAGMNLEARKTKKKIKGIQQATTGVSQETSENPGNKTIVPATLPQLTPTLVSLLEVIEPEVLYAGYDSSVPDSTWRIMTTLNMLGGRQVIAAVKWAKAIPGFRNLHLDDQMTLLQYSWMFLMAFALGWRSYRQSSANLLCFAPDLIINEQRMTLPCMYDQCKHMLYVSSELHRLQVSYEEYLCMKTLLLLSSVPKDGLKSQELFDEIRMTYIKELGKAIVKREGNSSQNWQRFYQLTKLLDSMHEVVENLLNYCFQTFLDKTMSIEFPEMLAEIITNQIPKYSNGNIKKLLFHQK

glucocorticoid receptor [2] = target: T1, glucocorticoid receptor; conditions: 45 minutes at 37° C.

- localization of the glucocorticoid receptor (glucocorticoid receptor [2]; 0.1 nM): N/C
- localization of the glucocorticoid receptor (glucocorticoid receptor [2]; 1 nM): N
- localization of the glucocorticoid receptor (glucocorticoid receptor [2]; 100 nM): N
- localization of the glucocorticoid receptor (glucocorticoid receptor [2]; 10 nm): N
SMILES: Cc1ccc2c(NC[C@](O)(CC(C)(C)c3cc(F)cc4c3OCC4)C(F)(F)F)cccc2n1 [Mapracorat]
- collagen 1 mRNA expression (Collagen 1a): dose-dependently enhanced collagen 1 mRNA expression in the presence of WE
- spontaneous IL-8 secretion in human monocytes (IL-8): inhibited both LPS-induced and spontaneous IL-8 secretion
- EC50 (glucocorticoid receptor [1]): 1.9 nM
